What was measured:
mice [1] = assay: In-vivo efficacy experiment 1: hair scoring in depilated mice given DHT; design: key: 0 = no skin darkening, 5 = complete hair growth
Procedure: 100 mice were deeply anesthetized. First, the hair on the back of the mice was shaved off with an animal hair clipper. Then, depilatory cream (Veet, https://item.jd.com/6291245.html) was evenly applied to the skin surface of the mice. After leaving it for 7-10 minutes, the remaining hair was gently scraped off against the hair growth direction with a depilatory spatula. Finally, the residual depilatory cream on the skin surface was thoroughly washed off with a wet wipe to avoid skin burns in the mice.
The main observation indicators of this experiment are shown in FIG. 12 (literature on hair scoring: Biomolecules & Therapeutics, 17(3), 241-248 (2009)), which is described as follows: (Score 0: No darkening of skin colour observed in any areas; Score 1: Darkening of skin area from greyish to black; Score 2: Visible short hairs; Score 3: Sparse hairs; Score 4: Dense hairs; Score 5: Complete hair growth). After depilation, the mice were photographed and scored three times a week until the end of the experiment.
100 mice were deeply anesthetized. First, the hair on the back of the mice was shaved off with an animal hair clipper. Then, depilatory cream was evenly applied to the skin surface of the mice. After leaving it for 7-10 minutes, the remaining hair was gently scraped off against the hair growth direction with a depilatory spatula. Finally, the residual depilatory cream on the skin surface was thoroughly washed off with a wet wipe to avoid skin burns in the mice.
DHT and test substances (compound of formula I and minoxidil) were administered starting on the day following depilation, which was recorded as Day 1 (the day of depilation was recorded as Day 0). 64 mice in good condition were randomly selected and assigned to each group. Table 1 Experimental grouping
According to the grouping in Table 1, and the corresponding administration dose, test substance concentration and administration volume, […] above experimental design and methods. For groups G7 and G8, which received a combined administration of the compound of formula I and minoxidil, one drug was administered first followed by the other, with the administration interval between the two drugs not exceeding 1 minute.
(§1) Starting from the first day of administration, body weight was weighed and recorded twice a week, and hair regrowth (anagen) scoring and photography were performed […], until the end of the experiment. Scoring was conducted according to the criteria described in the experimental design.

mice [2] = assay: In-vivo efficacy experiment 2: hair scoring in depilated mice given DHT; design: key: 0 = no skin darkening, 5 = complete hair growth
Procedure: 120 mice were deeply anesthetized. First, the hair on the back of the mice was shaved off with an animal hair clipper. Then, depilatory cream (Veet, https://item.jd.com/6291245.html) was evenly applied to the skin surface of the mice. After leaving it for 7-10 minutes, the remaining hair was gently scraped off against the hair growth direction with a depilatory spatula. Finally, the residual depilatory cream on the skin surface was thoroughly washed off with a wet wipe to avoid skin burns in the mice.
DHT and test substances (compound of formula I and minoxidil) were administered starting on the day following depilation, which was recorded as Day 1 (the day of depilation was recorded as Day 0). 86 mice in good condition were randomly selected and assigned to each group.
The main observation indicators of this experiment are shown in FIG. 12 (literature on hair scoring: Biomolecules & Therapeutics, 17(3), 241-248 (2009)), which is described as follows: (Score 0: No darkening of skin colour observed in any areas; Score 1: Darkening of skin area from greyish to black; Score 2: Visible short hairs; Score 3: Sparse hairs; Score 4: Dense hairs; Score 5: Complete hair growth). After depilation, the mice were photographed and scored three times a week until the end of the experiment. Table 4 Experimental grouping
According to the grouping in Table 4, and the corresponding administration dose, test substance concentration and administration volume, […] above experimental design and methods. For groups G6, G7 and G8, which received a combined administration of the compound of formula I and minoxidil, one drug was administered first followed by the other, with the administration interval between the two drugs not exceeding 1 minute.
as §1

[3] = Day 11, DHT model group: DHT 30 mg/kg subcutaneous injection QD + vehicle topical
[4] = Day 21, DHT model group: DHT 30 mg/kg subcutaneous injection QD + vehicle topical
[5] = Day 11, compound of formula I 0.5% (5 mg/mL) 150 µL topical QD, DHT 30 mg/kg subcutaneous QD
[6] = Day 21, compound of formula I 0.5% (5 mg/mL) 150 µL topical QD, DHT 30 mg/kg subcutaneous QD

## C[C@]12CCC(=O)C[C@@H]1CC[C@@H]1[C@@H]2CC[C@]2(C)[C@@H](O)CC[C@@H]12 [DHT, Dihydrotestosterone]
Mice [1]; Day 7, DHT model group: DHT 30 mg/kg subcutaneous injection QD + vehicle topical
  Hair scoring in mice, Score: 0.00
Mice [1]; Day 9, DHT model group: DHT 30 mg/kg subcutaneous injection QD + vehicle topical
  Hair scoring in mice, Score: 0.00
Mice [1]; [3]
  Hair scoring in mice, Score: 0.13
Mice [1]; Day 14, DHT model group: DHT 30 mg/kg subcutaneous injection QD + vehicle topical
  Hair scoring in mice, Score: 0.38
Mice [1]; Day 16, DHT model group: DHT 30 mg/kg subcutaneous injection QD + vehicle topical
  Hair scoring in mice, Score: 0.63
Mice [1]; Day 18, DHT model group: DHT 30 mg/kg subcutaneous injection QD + vehicle topical
  Hair scoring in mice, Score: 1.25
Mice [1]; [4]
  Hair scoring in mice, Score: 1.75
Mice [1]; Day 23, DHT model group: DHT 30 mg/kg subcutaneous injection QD + vehicle topical
  Hair scoring in mice, Score: 2.13
Mice [2]; Day 8, DHT model group: DHT 30 mg/kg subcutaneous injection QD + vehicle topical
  Hair scoring in mice: 0.00
Mice [2]; [3]
  Hair scoring in mice: 0.00
Mice [2]; Day 15, DHT model group: DHT 30 mg/kg subcutaneous injection QD + vehicle topical
  Hair scoring in mice: 0.40
Mice [2]; Day 17, DHT model group: DHT 30 mg/kg subcutaneous injection QD + vehicle topical
  Hair scoring in mice: 0.50
Mice [2]; Day 19, DHT model group: DHT 30 mg/kg subcutaneous injection QD + vehicle topical
  Hair scoring in mice: 0.90
Mice [2]; [4]
  Hair scoring in mice: 1.10

## COc1c(C#N)ccc(N2C(=O)C(C)(C)N(c3ccc(C)nc3)C2=S)c1F [compound of formula I, 4-(4,4-dimethyl-3-(6-methylpyridin-3-yl)-5-oxo-2-thioxoimidazolidin-1-yl)-3-fluoro-2-methoxybenzonitrile]
Mice [1]; Day 7, compound of formula I 0.5% (5 mg/mL) 150 µL topical QD, DHT 30 mg/kg subcutaneous QD
  Hair scoring in mice, Score: 0.00
Mice [1]; Day 7, compound of formula I 1.0% (10 mg/mL) 150 µL topical QD, DHT 30 mg/kg subcutaneous QD
  Hair scoring in mice, Score: 0.00
Mice [1]; Day 9, compound of formula I 0.5% (5 mg/mL) 150 µL topical QD, DHT 30 mg/kg subcutaneous QD
  Hair scoring in mice, Score: 0.13
Mice [1]; Day 9, compound of formula I 1.0% (10 mg/mL) 150 µL topical QD, DHT 30 mg/kg subcutaneous QD
  Hair scoring in mice, Score: 0.13
Mice [1]; [5]
  Hair scoring in mice, Score: 0.38
Mice [1]; Day 11, compound of formula I 1.0% (10 mg/mL) 150 µL topical QD, DHT 30 mg/kg subcutaneous QD
  Hair scoring in mice, Score: 0.13
Mice [1]; Day 14, compound of formula I 0.5% (5 mg/mL) 150 µL topical QD, DHT 30 mg/kg subcutaneous QD
  Hair scoring in mice, Score: 0.88
Mice [1]; Day 14, compound of formula I 1.0% (10 mg/mL) 150 µL topical QD, DHT 30 mg/kg subcutaneous QD
  Hair scoring in mice, Score: 0.38
Mice [1]; Day 16, compound of formula I 0.5% (5 mg/mL) 150 µL topical QD, DHT 30 mg/kg subcutaneous QD
  Hair scoring in mice, Score: 1.13
Mice [1]; Day 16, compound of formula I 1.0% (10 mg/mL) 150 µL topical QD, DHT 30 mg/kg subcutaneous QD
  Hair scoring in mice, Score: 1.00
Mice [1]; Day 18, compound of formula I 0.5% (5 mg/mL) 150 µL topical QD, DHT 30 mg/kg subcutaneous QD
  Hair scoring in mice, Score: 1.75
Mice [1]; Day 18, compound of formula I 1.0% (10 mg/mL) 150 µL topical QD, DHT 30 mg/kg subcutaneous QD
  Hair scoring in mice, Score: 1.38
Mice [1]; [6]
  Hair scoring in mice, Score: 2.25
Mice [1]; Day 21, compound of formula I 1.0% (10 mg/mL) 150 µL topical QD, DHT 30 mg/kg subcutaneous QD
  Hair scoring in mice, Score: 1.88
Mice [1]; Day 23, compound of formula I 0.5% (5 mg/mL) 150 µL topical QD, DHT 30 mg/kg subcutaneous QD
  Hair scoring in mice, Score: 2.50
Mice [1]; Day 23, compound of formula I 1.0% (10 mg/mL) 150 µL topical QD, DHT 30 mg/kg subcutaneous QD
  Hair scoring in mice, Score: 2.38
Mice [2]; Day 8, compound of formula I 0.25% (2.5 mg/mL) 150 µL topical QD, DHT 30 mg/kg subcutaneous QD
  Hair scoring in mice: 0.00
Mice [2]; Day 8, compound of formula I 0.5% (5 mg/mL) 150 µL topical QD, DHT 30 mg/kg subcutaneous QD
  Hair scoring in mice: 0.00
Mice [2]; Day 11, compound of formula I 0.25% (2.5 mg/mL) 150 µL topical QD, DHT 30 mg/kg subcutaneous QD
  Hair scoring in mice: 0.00
Mice [2]; [5]
  Hair scoring in mice: 0.00
Mice [2]; Day 15, compound of formula I 0.25% (2.5 mg/mL) 150 µL topical QD, DHT 30 mg/kg subcutaneous QD
  Hair scoring in mice: 0.60
Mice [2]; Day 15, compound of formula I 0.5% (5 mg/mL) 150 µL topical QD, DHT 30 mg/kg subcutaneous QD
  Hair scoring in mice: 0.90
Mice [2]; Day 17, compound of formula I 0.25% (2.5 mg/mL) 150 µL topical QD, DHT 30 mg/kg subcutaneous QD
  Hair scoring in mice: 1.00
Mice [2]; Day 17, compound of formula I 0.5% (5 mg/mL) 150 µL topical QD, DHT 30 mg/kg subcutaneous QD
  Hair scoring in mice: 1.40
Mice [2]; Day 19, compound of formula I 0.25% (2.5 mg/mL) 150 µL topical QD, DHT 30 mg/kg subcutaneous QD
  Hair scoring in mice: 1.40
Mice [2]; Day 19, compound of formula I 0.5% (5 mg/mL) 150 µL topical QD, DHT 30 mg/kg subcutaneous QD
  Hair scoring in mice: 1.70
Mice [2]; Day 21, compound of formula I 0.25% (2.5 mg/mL) 150 µL topical QD, DHT 30 mg/kg subcutaneous QD
  Hair scoring in mice: 1.80
Mice [2]; [6]
  Hair scoring in mice: 2.20
